Assay results published in patent publication US11066369B2, “N-(pyridin-2-yl)pyridine-sulfonamide derivatives and their use in the treatment of disease” (Novartis AG, priority 2016, dated 2021).
Where a name gives a salt, the structure may show the parent alone.

Legend:
[1] = target: T1, delF508-CFTR (Homo sapiens, UniProt P13569, DEL508-508); assay: Measurement of delF508-CFTR functional activity in primary human bronchial epithelial cells (HBECs) using Multi-Transepithelial Clamp Circuit (MTECC-24) assay; type: cell-based; conditions: primary CF HBECs; for MTECC24 CFHBEC- Amax %: test compound added 24h before assay plus potentiator, relative to reference combination (2 μM corrector + 0.5 μM potentiator); for EC50: test compound added 24h before assay, in the presence of potentiator, mean of at least two replicates, read-out: MTECC24 CFHBEC- EC50
T1 construct: functional activity of the CFTR channel (Chloride ion transport) in patient derived primary human bronchial epithelial cells; host or cells: patient-derived primary human bronchial epithelial cells (delF508-CFTR)
Outline: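 Patient-derived primary delF508-CFTR HBECs, differentiated at air-liquid interface ~2 weeks, treated basolaterally with compound for 24 h, then apical and basolateral compound in HEPES pH 7.4 assay medium. Equivalent short-circuit current (Ieq) recorded on MTECC-24 with sequential amiloride, forskolin, potentiator and INH-172; normalized to 0.1% DMSO, EC50 from curve fit.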

[2] = target: T2, horseradish peroxidase (HRP) tagged delF508-CFTR (Homo sapiens, UniProt P13569, DEL508-508); assay: Measurement of delF508-CFTR-HRP surface expression in CFBE41o- cells; type: cell-based; conditions: delF508-CFTR-HRP surface expression, CFBE41o- cells; for Emax: read-out: DelF508-CFTR-HRP Amax %; for EC50: read-out: DelF508-CFTR-HRP EC50;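 for DelF508-CFTR-HRP Amax %: percent efficacy relative to reference corrector lumacaftor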
T2 construct: expressed in transfected cells
Outline: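 CFBE41o- bronchial epithelial cells stably expressing delF508-CFTR with HRP in the fourth extracellular loop; expression induced 48h with 500 ng/mL doxycycline, then compounds added (top 10 μM, 10-point 3-fold series, ≤0.5% DMSO) for 24h at 37° C. Surface HRP measured by luminescence with cell-impermeant substrate; EC50 from logistic fit of triplicates, plate-normalized to lowest concentration; efficacy also relative to a reference corrector.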

T1 sequence (P13569 with tags, fused parts or gaps DEL508-508): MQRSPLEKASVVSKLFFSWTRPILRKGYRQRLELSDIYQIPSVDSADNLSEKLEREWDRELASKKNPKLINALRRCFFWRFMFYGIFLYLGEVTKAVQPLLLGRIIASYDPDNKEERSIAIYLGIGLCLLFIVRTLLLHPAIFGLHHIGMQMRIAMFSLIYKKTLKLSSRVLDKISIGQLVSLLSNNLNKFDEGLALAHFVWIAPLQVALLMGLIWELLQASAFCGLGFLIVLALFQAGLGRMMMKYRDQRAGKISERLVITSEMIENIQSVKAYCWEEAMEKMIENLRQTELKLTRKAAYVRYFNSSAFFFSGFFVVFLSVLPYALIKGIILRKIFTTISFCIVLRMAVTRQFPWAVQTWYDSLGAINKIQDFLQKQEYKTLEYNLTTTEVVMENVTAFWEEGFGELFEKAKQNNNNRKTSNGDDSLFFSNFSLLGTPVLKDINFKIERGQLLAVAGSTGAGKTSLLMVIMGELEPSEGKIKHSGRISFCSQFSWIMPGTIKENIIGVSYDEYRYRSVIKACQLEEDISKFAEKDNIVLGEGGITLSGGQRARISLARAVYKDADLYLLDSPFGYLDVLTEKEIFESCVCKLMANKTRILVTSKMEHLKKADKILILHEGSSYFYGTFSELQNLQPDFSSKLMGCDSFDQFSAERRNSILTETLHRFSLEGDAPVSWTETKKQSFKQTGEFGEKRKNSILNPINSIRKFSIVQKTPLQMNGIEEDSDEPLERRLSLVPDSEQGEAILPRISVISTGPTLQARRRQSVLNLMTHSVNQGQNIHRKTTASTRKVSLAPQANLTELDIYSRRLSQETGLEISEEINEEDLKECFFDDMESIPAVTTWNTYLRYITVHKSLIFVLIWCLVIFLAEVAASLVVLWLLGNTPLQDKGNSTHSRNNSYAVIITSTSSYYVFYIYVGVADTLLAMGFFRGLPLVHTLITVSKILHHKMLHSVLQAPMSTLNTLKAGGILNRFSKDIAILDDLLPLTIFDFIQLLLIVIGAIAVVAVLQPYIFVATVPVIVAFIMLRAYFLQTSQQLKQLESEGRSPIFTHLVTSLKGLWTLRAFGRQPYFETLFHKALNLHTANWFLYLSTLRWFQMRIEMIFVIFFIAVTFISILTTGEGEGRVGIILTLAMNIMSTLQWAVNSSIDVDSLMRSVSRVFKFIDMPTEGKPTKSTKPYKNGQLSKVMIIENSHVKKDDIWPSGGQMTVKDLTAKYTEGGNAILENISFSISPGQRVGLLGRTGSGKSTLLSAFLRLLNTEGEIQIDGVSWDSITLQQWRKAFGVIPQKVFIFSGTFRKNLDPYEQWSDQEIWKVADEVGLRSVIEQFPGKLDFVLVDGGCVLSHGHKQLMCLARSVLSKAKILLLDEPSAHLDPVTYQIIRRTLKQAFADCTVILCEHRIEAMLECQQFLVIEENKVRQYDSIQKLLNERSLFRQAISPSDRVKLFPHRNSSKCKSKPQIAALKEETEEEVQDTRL
T2 sequence (P13569 with tags, fused parts or gaps DEL508-508): as above

Row | SMILES | MTECC24 CFHBEC- Amax % [1] [%] | EC50 [1] [µM] | Emax [2] [%] | EC50 [2] [µM]
1 | O=S(=O)(Nc1ccc(Cl)c(-c2ccccc2C(F)(F)F)n1)c1cccc(N[C@H]2COC[C@@H]2O)n1 [Example 125, N-(5-chloro-6-(2-(trifluoromethyl)phenyl)pyridin-2-yl)-6-(((3S,4R)-4-hydroxytetrahydrofuran-3-yl)amino)pyridine-2-sulfonamide] | 67.5 | 0.0475 | 215 | 1.94
2 | Cc1ccc(F)cc1-c1nc(NS(=O)(=O)c2cccc(N[C@@H]3COC[C@H]3O)n2)ccc1Cl [Example 127, N-(5-chloro-6-(5-fluoro-2-methylphenyl)pyridin-2-yl)-6-(((3R,4S)-4-hydroxytetrahydrofuran-3-yl)amino)pyridine-2-sulfonamide] | 45.4 | 0.0157 | 382 | 2.32
3 | Cc1ccc(F)cc1-c1nc(NS(=O)(=O)c2cccc(N[C@@H]3[C@H](CO)[C@H]4CC[C@@H]3O4)n2)ccc1Cl [Example 128, N-(5-chloro-6-(5-fluoro-2-methylphenyl)pyridin-2-yl)-6-(((1S,2R,3R,4R)-3-(hydroxymethyl)-7-oxabicyclo[2.2.1]heptan-2-yl)amino)pyridine-2-sulfonamide] | 61.9 | 0.0053 | 730 | 2.24
4 | Cc1cccc(C)c1-c1nc(NS(=O)(=O)c2cccc(O[C@H]3CC[C@@H](C(=O)O)CC3)n2)ccc1Cl [Example 129, (1s,4s)-4-((6-(N-(5-chloro-6-(2,6-dimethylphenyl)pyridin-2-yl)sulfamoyl)pyridin-2-yl)oxy)cyclohexane-1-carboxylic Acid] | 54.8 | 0.0195 |  | 1.72
5 | Cc1cccc(C)c1-c1nc(NS(=O)(=O)c2cccc(O[C@H]3CC[C@H](C(=O)O)CC3)n2)ccc1Cl [Example 130, (1r,4r)-4-((6-(N-(5-chloro-6-(2,6-dimethylphenyl)pyridin-2-yl)sulfamoyl)pyridin-2-yl)oxy)cyclohexane-1-carboxylic Acid] | 37.9 | 0.0841 | 157 | 2.92
6 | Cc1cccc(C)c1-c1nc(NS(=O)(=O)c2cccc(N3CCNC(=O)C3)n2)ccc1Cl [Example 131, N-(5-chloro-6-(2,6-dimethylphenyl)pyridin-2-yl)-6-(3-oxopiperazin-1-yl)pyridine-2-sulfonamide] | 78.4 | 0.025 | 729 | 2.14
7 | Cc1cccc(C)c1-c1cc(C(F)(F)F)cc(NS(=O)(=O)c2cccc(N3CCNCC3)n2)n1 [Example 133, N-(6-(2,6-dimethylphenyl)-4-(trifluoromethyl)pyridin-2-yl)-6-(piperazin-1-yl)pyridine-2-sulfonamide Hydrochloride] | 71.2 | 0.0979 | 570 | 2.03
8 | Cc1ccc(F)cc1-c1nc(NS(=O)(=O)c2cccc(N3CCN4C[C@@H](F)CC4[C@@H]3C)n2)ccc1Cl (stereo partly drawn) [Example 135, N-(5-chloro-6-(5-fluoro-2-methylphenyl)pyridin-2-yl)-6-((1S,7S)-7-fluoro-1-methylhexahydropyrrolo[1,2-a]pyrazin-2(1H)-yl)pyridine-2-sulfonamide] | 95.3 | 0.013 | 804 | 3.44
9 | Cc1c(F)cccc1-c1nc(NS(=O)(=O)c2cccc(N3CCN(C(C)(C)C)CC3)n2)ccc1Cl [Example 140, 6-(4-(tert-butyl)piperazin-1-yl)-N-(5-chloro-6-(3-fluoro-2-methylphenyl)pyridin-2-yl)pyridine-2-sulfonamide] | 65.3 | 0.0295 | 395 | 3.48
10 | Cc1c(F)cccc1-c1nc(NS(=O)(=O)c2cccc(N3CCN(C4CC4)CC3)n2)ccc1Cl [Example 141, N-(5-chloro-6-(3-fluoro-2-methylphenyl)pyridin-2-yl)-6-(4-cyclopropylpiperazin-1-yl)pyridine-2-sulfonamide] | 88.7 | 0.0086 | 938 | 2.02

Continued, values first:

Row | MTECC24 CFHBEC- Amax % [1] [%] | EC50 [1] [µM] | Emax [2] [%] | EC50 [2] [µM] | SMILES
11 | 55.0 | 0.495 | 172 | 4.05 | Cc1ccccc1-c1nc(NS(=O)(=O)c2cccc(NC3CCNCC3)n2)ccc1C(F)(F)F [Example 112, 6-(piperidin-4-ylamino)-N-(6-(o-tolyl)-5-(trifluoromethyl)pyridin-2-yl)pyridine-2-sulfonamide Hydrochloride]
12 | 78.5 | 0.0117 | 492 | 2.6 | Cc1ccccc1-c1nc(NS(=O)(=O)c2cccc(N3C[C@H](O)[C@@H](N4CCCC4)C3)n2)ccc1C(F)(F)F [Example 118, 6-((3′S,4'S)-4′-hydroxy-[1,3′-bipyrrolidin]-1′-yl)-N-(6-(o-tolyl)-5-(trifluoromethyl)pyridin-2-yl)pyridine-2-sulfonamide]
13 | 70.2 | 0.0553 | 411 | 1.83 | Cc1ccccc1-c1nc(NS(=O)(=O)c2cccc(N3CC[C@@H](N)C3)n2)ccc1C(F)(F)F [Example 119, (R)-6-(3-aminopyrrolidin-1-yl)-N-(6-(o-tolyl)-5-(trifluoromethyl)pyridin-2-yl)pyridine-2-sulfonamide Hydrochloride]
14 | 57.9 | 0.0372 | 270 | 2.82 | Cc1ccccc1-c1nc(NS(=O)(=O)c2cccc(N3CC[C@H](N)C3)n2)ccc1C(F)(F)F [Example 120, (S)-6-(3-aminopyrrolidin-1-yl)-N-(6-(o-tolyl)-5-(trifluoromethyl)pyridin-2-yl)pyridine-2-sulfonamide Hydrochloride]
15 | 79.6 | 0.164 | 308 | 3.45 | CN[C@@H]1CCN(c2cccc(S(=O)(=O)Nc3ccc(C(F)(F)F)c(-c4ccccc4C)n3)n2)C1 [Example 121, (R)-6-(3-(methylamino)pyrrolidin-1-yl)-N-(6-(o-tolyl)-5-(trifluoromethyl)pyridin-2-yl)pyridine-2-sulfonamide Hydrochloride]
16 | 81.8 | 0.0271 | 385 | 2.69 | CN[C@H]1CCN(c2cccc(S(=O)(=O)Nc3ccc(C(F)(F)F)c(-c4ccccc4C)n3)n2)C1 [Example 122, (S)-6-(3-(methylamino)pyrrolidin-1-yl)-N-(6-(o-tolyl)-5-(trifluoromethyl)pyridin-2-yl)pyridine-2-sulfonamide Hydrochloride]
17 | 85.2 | 0.238 | 218 | 3.15 | Cc1ccccc1-c1nc(NS(=O)(=O)c2cccc(N[C@@H]3CCNC3)n2)ccc1C(F)(F)F [Example 123, (R)-6-(pyrrolidin-3-ylamino)-N-(6-(o-tolyl)-5-(trifluoromethyl)pyridin-2-yl)pyridine-2-sulfonamide Hydrochloride]
18 | 112.7 | 0.019 | 906 | 1.98 | Cc1ccc(F)cc1-c1nc(NS(=O)(=O)c2cccc(N3CCN4C[C@@H](F)C[C@@H]4C3)n2)ccc1Cl [Example 134, N-(5-chloro-6-(5-fluoro-2-methylphenyl)pyridin-2-yl)-6-((7S,8aR)-7-fluorohexahydropyrrolo[1,2-a]pyrazin-2(1H)-yl)pyridine-2-sulfonamide]
19 | 108.4 | 0.0156 | 636 | 0.681 | Cc1ccccc1-c1nc(NS(=O)(=O)c2cccc(N3CCN4C[C@@H](F)C[C@@H]4C3)n2)ccc1C(F)(F)F [Example 138, 6-((7S,8aR)-7-fluorohexahydropyrrolo[1,2-a]pyrazin-2(1H)-yl)-N-(6-(o-tolyl)-5-(trifluoromethyl)pyridin-2-yl)pyridine-2-sulfonamide]
20 | 63.7 | 0.0052 | 418 | 2.63 | Cc1c(F)cccc1-c1nc(NS(=O)(=O)c2cccc(N3CCN(C(C)(C)C)CC3)n2)ccc1C(F)(F)F [Example 142, 6-(4-(tert-butyl)piperazin-1-yl)-N-(6-(3-fluoro-2-methylphenyl)-5-(trifluoromethyl)pyridin-2-yl)pyridine-2-sulfonamide]
21 | 80.5 | 0.002 |  | 1.88 | Cc1c(F)cccc1-c1nc(NS(=O)(=O)c2cccc(N3CCN(C4CC4)CC3)n2)ccc1C(F)(F)F [Example 144, 6-(4-cyclopropylpiperazin-1-yl)-N-(6-(3-fluoro-2-methylphenyl)-5-(trifluoromethyl)pyridin-2-yl)pyridine-2-sulfonamide]
22 | 90.9 | 0.005 |  | 1.27 | Cc1ccc(F)cc1-c1nc(NS(=O)(=O)c2cccc(N3CCN(C4CC4)CC3)n2)ccc1C(F)(F)F [Example 145, 6-(4-cyclopropylpiperazin-1-yl)-N-(6-(5-fluoro-2-methylphenyl)-5-(trifluoromethyl)pyridin-2-yl)pyridine-2-sulfonamide]
